Test results published in US7329518B2, “Enzyme for producing optically active pyridineethanol derivatives” (Kaneka Corporation, priority 1999, dated 2008).

Each compound was assayed on FPDH (assay: Behaviors of FPDH against inhibitors (reducing activity measurement with added compounds and metal salts)). Settings: inhibitor 0.01 mM; activity without inhibitor = 100%; 1 mM 5-acetylfuro[2,3-c]pyridine, 0.25 mM NADH, pH 6.5, 30° C.
Format: biochemical, Candida maris IFO 10003
O=C(O)c1cc(SSc2ccc([N+](=O)[O-])c(C(=O)O)c2)ccc1[N+](=O)[O-] [DTNB] showed a Relative activity of 98%. Work on O=c1c(O)c(-c2ccc(O)c(O)c2)oc2cc(O)cc(O)c12 [Quercetin] yielded a Relative activity of 78%.

Same assay, conditions: inhibitor 0.1 mM; activity without inhibitor = 100%; 1 mM 5-acetylfuro[2,3-c]pyridine, 0.25 mM NADH, pH 6.5, 30° C.
O=C(O)c1cc[c]([Hg][Cl])cc1 [p-Chloromercuribenzoic acid] gave a Relative activity of 100%.

Same assay, conditions: inhibitor 1.0 mM; activity without inhibitor = 100%; 1 mM 5-acetylfuro[2,3-c]pyridine, 0.25 mM NADH, pH 6.5, 30° C.
O[C@H](CS)[C@H](O)CS (racemic) [Dithiothreitol] was tested, and the Relative activity was 93%. In the case of c1cnc2c(c1)ccc1cccnc12 [1,10-Phenanthroline], the Relative activity is reported as 98%. Compound OCCS [2-Mercaptoethanol] has a Relative activity of 94%. In the case of O=S(=O)([O-])[O-].[Cu+2] [CuSO4], the Relative activity is reported as 103%. O=C(O)CN(CCN(CC(=O)O)CC(=O)O)CC(=O)O [EDTA] showed a Relative activity of 98%. [Cl][Hg][Cl] [HgCl2] showed a Relative activity of 0%. Work on O=S(=O)([O-])[O-].[Mg+2] [MgSO4] yielded a Relative activity of 81%. Compound [Cl][Mn][Cl] [MnCl2] has a Relative activity of 76%. Compound CCN1C(=O)C=CC1=O [N-ethylmaleimide] has a Relative activity of 84%. O=S(=O)([O-])[O-].[Zn+2] [ZnSO4] gave a Relative activity of 74%.

Same assay, conditions: pH 6.5
[Cl-].[Cl-].[Co+2] [CoCl2] gave a Relative activity of 85%. In the case of O=C(O)CI [Iodoacetic acid], the Relative activity is reported as 80%.

Same assay, conditions: standard reaction conditions for reducing activity measurement
For [Hg+2] [mercury ion], the “Inhibition of the enzyme activity (in words)” value was “inhibited”.

Each compound was assayed on FPDH (assay: Oxidation activity of FPDH against various compounds as substrates). Settings: substrate 1 mM; 5-(1-(R)-hydroxyethyl)furo[2,3-c]pyridine = 100%; 0.25 mM NAD+, pH 8.0, 30° C.
Format: biochemical, Candida maris IFO 10003
Method: Further, FPDH was examined for oxidation activity against various compounds. The oxidation activity was measured by allowing the reaction to proceed at 30° C. for 3 minutes in 3.0 ml of a reaction mixture containing 1 mM substrate, 0.25 mM NAD^+, 0.3% (vol/vol) dimethyl sulfoxide and 0.05 ml of the enzyme solution in 100 mM phosphate buffer (pH 8.0) and measuring the increase in absorbance at the wavelength 340 nm. These conditions were employed as standard reaction conditions for oxidizing activity substrate measurement. The enzyme activity reducing 1 μmole of NAD^+ to NADH in one minute under these reaction conditions was defined as 1 unit. The data shown in Table 10 are relative activities with the oxidation activity against the substrate 5-(1-(R)-hydroxyethyl)furo[2,3-c]pyridine being taken as 100%.
With CC(O)c1ccccn1 (centres unmarked) [1-(2-Pyridyl)ethanol] the “Relative activity (oxidation activity)” value was 23%. In the case of CC(O)c1cccnc1 (centres unmarked) [1-(3-Pyridyl)ethanol], the “Relative activity (oxidation activity)” value is reported as 110%. With CC(O)c1ccncc1 (centres unmarked) [1-(4-Pyridyl)ethanol] the “Relative activity (oxidation activity)” value was 24%. For C=CC(C)O (centres unmarked) [1-Buten-3-ol], the “Relative activity (oxidation activity)” value was 261%. C=CCC(C)O (centres unmarked) [4-Penten-2-ol] was tested, and the “Relative activity (oxidation activity)” value was 172%.

Each compound was assayed on FPDH (assay: Specificity of FPDH: reducing activity against various carbonyl compounds as substrates). Settings: substrate 1 mM; 5-acetylfuro[2,3-c]pyridine = 100%; 0.25 mM NADH, pH 6.5, 30° C.
Format: biochemical, Candida maris IFO 10003
Method: In the practice of the invention, the reducing activity of the enzyme is determined by carrying out the reaction in 3.0 ml of a reactant mixture containing 1 mM substrate, 0.25 mM coenzyme NADH, 0.3% (vol/vol) dimethyl sulfoxide and an enzyme solution in 100 mM phosphate buffer (pH 6.5) at 30° C. for 3 minutes and then measuring the reduction in absorbance at 340 nm.
The term “very low in reducing activity” referring to the specificity means that when the reducing activity against 5-acetylfuro[2,3-c]pyridine is taken as 100%, the reducing activity against the substrate in question is not more than 10%. The term “carbocyclic ketones” means ketones, such as cyclohexanone and cyclopentanone, derived from alicyclic compounds by substituting —C(═O)— for a ring constituent —CH2— thereof.
Hereafter, the reducing activity was measured by allowing the reaction to proceed at 30° C. for 3 minutes in 3.0 ml of a reaction mixture containing 1 mM 5-acetylfuro[2,3-c]pyridine (substrate), 0.25 mM NADH, 0.3% (vol/vol) dimethyl sulfoxide and 0.05 ml of the enzyme solution in 100 mM phosphate buffer (pH 6.5) and measuring the decrease in absorbance at the wavelength 340 nm. These conditions were employed as standard reaction conditions for reducing activity measurement. The enzyme activity oxidizing 1 μmole of NADH to NAD^+ in one minute under these reaction conditions was defined as 1 unit.
The reducing activity of FPDH was examined against various compounds. Activity measurements were conducted under the standard reaction conditions for reducing activity measurement using various carbonyl compounds shown in Table 8 and Table 9 as substrates in lieu of 5-acetylfuro[2,3-c]pyridine. In Table 8 and Table 9, the results are shown in terms of relative activity with the reducing activity when 5-acetylfuro[2,3-c]pyridine was used as the substrate being taken as 100%. As a result, FPDH had reducing activity against ketones and aldehydes but the reducing activity thereof was very low against carbocyclic ketones and the ketone in position α to a carboxyl group.
For CC(=O)C1CCCCC1=O (centres unmarked) [1-Acetylcyclohexanone], the “Relative activity (reducing activity, Table 8)” value was 68%. With CC(=O)C1CCCC1=O (centres unmarked) [1-Acetylcyclopentanone] the “Relative activity (reducing activity, Table 8)” value was 86%. CC(=O)c1cc2ccoc2c(Cl)n1 [1-Chloro-5-acetylfuro[2,3-c]pyridine] was tested, and the “Relative activity (reducing activity, Table 8)” value was 66%. With O=C1CCCc2ccccc21 [1-Tetralone] the “Relative activity (reducing activity, Table 9)” value was 2%. With O=C(CCl)c1cccc(Cl)c1 [2,3′-Dichloroacetophenone] the “Relative activity (reducing activity, Table 8)” value was 19%. For CC(=O)c1ccco1 [2-Acetylfuran], the “Relative activity (reducing activity, Table 8)” value was 43%. CC(=O)c1ccccn1 [2-Acetylpyridine] was tested, and the “Relative activity (reducing activity, Table 8)” value was 111%. CC(=O)c1ccc[nH]1 [2-Acetylpyrrole] was tested, and the “Relative activity (reducing activity, Table 8)” value was 100%. For CC(=O)c1nccs1 [2-Acetylthiazole], the “Relative activity (reducing activity, Table 8)” value was 86%. CC(=O)c1cccs1 [2-Acetylthiophene] was tested, and the “Relative activity (reducing activity, Table 8)” value was 77%. For CCC(C)=O [2-Butanone], the “Relative activity (reducing activity, Table 8)” value was 94%. CCCCC(C)=O [2-Hexanone] was tested, and the “Relative activity (reducing activity, Table 8)” value was 38%. With O=C(CO)c1ccccc1 [2-Hydroxyacetophenone] the “Relative activity (reducing activity, Table 8)” value was 54%. In the case of CCCC(=O)C(=O)O [2-Keto-n-valeric acid], the “Relative activity (reducing activity, Table 9)” value is reported as 7%. With CCC(=O)C(=O)O [2-Ketobutyric acid] the “Relative activity (reducing activity, Table 9)” value was 5%. For CCCCCCC(C)=O [2-Octanone], the “Relative activity (reducing activity, Table 8)” value was 38%. CCCC(C)=O [2-Pentanone] was tested, and the “Relative activity (reducing activity, Table 8)” value was 67%. In the case of O=C1CCc2ccccc2C1 [2-Tetralone], the “Relative activity (reducing activity, Table 9)” value is reported as 0%. CC(=O)c1cccnc1 [3-Acetylpyridine] was tested, and the “Relative activity (reducing activity, Table 8)” value was 107%. CC(=O)c1ccncc1 [4-Acetylpyridine] was tested, and the “Relative activity (reducing activity, Table 8)” value was 130%. With CC(=O)c1cc2ccoc2cn1 [5-Acetylfuro[2,3-c]pyridine] the “Relative activity (reducing activity, Table 8)” value was 100%. For CC=O [Acetaldehyde], the “Relative activity (reducing activity, Table 9)” value was 36%. For CC(=O)C(C)O (centres unmarked) [Acetoin], the “Relative activity (reducing activity, Table 8)” value was 43%. With CC(C)=O [Acetone] the “Relative activity (reducing activity, Table 8)” value was 40%. CC(=O)c1ccccc1 [Acetophenone] was tested, and the “Relative activity (reducing activity, Table 8)” value was 88%. CC(=O)CC(C)=O [Acetylacetone] was tested, and the “Relative activity (reducing activity, Table 8)” value was 123%. CC(=O)c1cnccn1 [Acetylpyrazine] was tested, and the “Relative activity (reducing activity, Table 8)” value was 133%. In the case of O=Cc1ccccc1 [Benzaldehyde], the “Relative activity (reducing activity, Table 9)” value is reported as 94%. For CC(=O)CCc1ccccc1 [Benzylacetone], the “Relative activity (reducing activity, Table 8)” value was 96%. With CC12CCC(C(=O)C1=O)C2(C)C (centres unmarked) [Camphorquinone] the “Relative activity (reducing activity, Table 9)” value was 3%. With O=C1CCCCCC1 [Cycloheptanone] the “Relative activity (reducing activity, Table 9)” value was 4%. In the case of O=C1CCCCC1 [Cyclohexanone], the “Relative activity (reducing activity, Table 9)” value is reported as 4%. O=C1CCCC1 [Cyclopentanone] was tested, and the “Relative activity (reducing activity, Table 9)” value was 3%. For CC(=O)C(C)=O [Diacetyl], the “Relative activity (reducing activity, Table 8)” value was 107%. CCC(=O)CC [Diethyl ketone] was tested, and the “Relative activity (reducing activity, Table 8)” value was 22%. In the case of CCOC(=O)C(Cl)C(C)=O (centres unmarked) [Ethyl 2-chloroacetoacetate], the “Relative activity (reducing activity, Table 9)” value is reported as 88%. With CCOC(=O)CC(C)=O [Ethyl acetoacetate] the “Relative activity (reducing activity, Table 9)” value was 141%. CCOC(=O)C(C)=O [Ethyl pyruvate] was tested, and the “Relative activity (reducing activity, Table 8)” value was 133%. For COC(=O)CC(C)=O [Methyl acetoacetate], the “Relative activity (reducing activity, Table 9)” value was 128%. For CC(=O)CC(C)C [Methyl isobutyl ketone], the “Relative activity (reducing activity, Table 8)” value was 14%. With CC(=O)C(C)C [Methyl isopropyl ketone] the “Relative activity (reducing activity, Table 8)” value was 43%. For COC(=O)C(C)=O [Methyl pyruvate], the “Relative activity (reducing activity, Table 8)” value was 132%. O=C(O)CC(=O)C(=O)O [Oxalacetic acid] was tested, and the “Relative activity (reducing activity, Table 9)” value was 4%. In the case of CCC=O [Propionaldehyde], the “Relative activity (reducing activity, Table 9)” value is reported as 70%. In the case of O=Cc1ccccn1 [Pyridine-2-aldehyde], the “Relative activity (reducing activity, Table 9)” value is reported as 54%. In the case of O=Cc1cccnc1 [Pyridine-3-aldehyde], the “Relative activity (reducing activity, Table 9)” value is reported as 47%. With O=Cc1ccncc1 [Pyridine-4-aldehyde] the “Relative activity (reducing activity, Table 9)” value was 64%. CC(=O)C(=O)O [Pyruvic acid] was tested, and the “Relative activity (reducing activity, Table 9)” value was 3%. CC(=O)c1cccc(Cl)c1 [m-Chloroacetophenone] was tested, and the “Relative activity (reducing activity, Table 8)” value was 120%. For O=Cc1cccc(Cl)c1 [m-Chlorobenzaldehyde], the “Relative activity (reducing activity, Table 9)” value was 111%. In the case of CC(=O)c1cccc([N+](=O)[O-])c1 [m-Nitroacetophenone], the “Relative activity (reducing activity, Table 8)” value is reported as 136%. For O=Cc1cccc([N+](=O)[O-])c1 [m-Nitrobenzaldehyde], the “Relative activity (reducing activity, Table 9)” value was 103%. In the case of CCCC=O [n-Butyr aldehyde], the “Relative activity (reducing activity, Table 9)” value is reported as 123%. With CCCCCC=O [n-Hexyl aldehyde] the “Relative activity (reducing activity, Table 9)” value was 71%. For CC(=O)c1ccccc1Cl [o-Chloroacetophenone], the “Relative activity (reducing activity, Table 8)” value was 9%. With O=Cc1ccccc1Cl [o-Chlorobenzaldehyde] the “Relative activity (reducing activity, Table 9)” value was 0%. For O=Cc1ccccc1[N+](=O)[O-] [o-Nitrobenzaldehyde], the “Relative activity (reducing activity, Table 9)” value was 9%. For CC(=O)c1ccc(Cl)cc1 [p-Chloroacetophenone], the “Relative activity (reducing activity, Table 8)” value was 88%. With O=Cc1ccc(Cl)cc1 [p-Chlorobenzaldehyde] the “Relative activity (reducing activity, Table 9)” value was 104%. With CC(=O)c1ccc(F)cc1 [p-Fluoroacetophenone] the “Relative activity (reducing activity, Table 8)” value was 88%. With CC(=O)c1ccc([N+](=O)[O-])cc1 [p-Nitroacetophenone] the “Relative activity (reducing activity, Table 8)” value was 116%. In the case of O=Cc1ccc([N+](=O)[O-])cc1 [p-Nitrobenzaldehyde], the “Relative activity (reducing activity, Table 9)” value is reported as 162%.
